PubChem BioAssay (NCI)
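Where inhibition never reached the appropriate level, the endpoint shown equals the highest concentration tested. Otherwise, values were interpolated linearly from a five-concentration, 48-hour dose response in 96-well plates. TGI denotes the concentration required for complete inhibition of growth.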

Experiments:
Experiment in all cases: NCI anticancer screen, dose series, 48 h
[1] = system: A549 NSCLC
[2] = system: M19-MEL melanoma
[3] = system: RXF 393 renal
[4] = system: SF-539 CNS
[5] = system: DLD-1 colon
[6] = system: SK-MEL-28 melanoma
[7] = system: SR leukemia
[8] = system: UO-31 renal
[9] = system: OVCAR-8 ovarian
[10] = system: SW-620 colon
[11] = system: DMS 273 small cell lung
[12] = system: XF 498 CNS
[13] = system: DMS 114 small cell lung
[14] = system: HCT-15 colon
[15] = system: A498 renal
[16] = system: MDA-N
[17] = system: MDA-MB-435
[18] = system: HS 578T breast
[19] = system: T-47D breast
[20] = system: DU-145 prostate

SMILES	TGI [1]	TGI [2]	TGI [3]	TGI [4]	TGI [5]	TGI [6]	TGI [7]	TGI [8]	TGI [9]	TGI [10]	TGI [11]	TGI [12]	TGI [13]	TGI [14]	TGI [15]	TGI [16]	TGI [17]	TGI [18]	TGI [19]	TGI [20]
Cc1cc2n([O-])cccc-2[n+](=O)c1	> 100 µM	> 100 µM	> 100 µM	> 100 µM	> 100 µM	> 100 µM	> 100 µM	> 100 µM	> 100 µM	> 100 µM	> 100 µM	> 100 µM	> 100 µM	> 100 µM						
Nc1c(N=Nc2ccc(-c3ccc(N=Nc4c(O)ccc5cc(S(=O)(=O)O)cc(S(=O)(=O)O)c45)cc3)cc2)c(S(=O)(=O)O)cc2cc(S(=O)(=O)O)c(N=Nc3ccccc3)c(O)c12	> 100 µM	> 100 µM	> 100 µM	> 100 µM	> 100 µM	> 100 µM			> 100 µM	> 100 µM	> 100 µM	> 100 µM	> 100 µM	> 100 µM	> 100 µM					
C=C[C@@](C)(/C=C/c1ccc(O)cc1)CCC=C(C)C	35.1 µM					35.7 µM	32.1 µM	32.4 µM	35.2 µM	34 µM				32.7 µM	35.6 µM	31 µM	33.9 µM	46.9 µM	28.7 µM	26.1 µM
COc1cc2cc(C(=O)N3CC(CCl)c4c3cc([N+](C)(C)Cc3ccc([N+](=O)[O-])n3C)c3ccccc43)[nH]c2c(OC)c1OC (stereo unspecified)	1.06 µM			14.3 µM		9.11 µM	2.29 µM		8.78 µM	> 100 µM						6.64 µM	60.7 µM	38.2 µM	38.9 µM	23.8 µM
